In experiment [1] the test system is L1210. The experiment in a line: Inhibitory effect on the biosyntheses of DNA in murine L1210 cells. Particulars: Mus musculus. It counts as functional, cell-based.
Experiment [2] deals with L1210. The experiment in a line: Inhibitory effect on the biosyntheses of protein in murine L1210 cells. It counts as functional, cell-based. Particulars: Mus musculus.
Experiment [3] in a line: Cytotoxicity against human Molt 4/C8 cells. The format is functional, cell-based. Particulars: Molt4/C8.
The test system of experiment [4] is L1210. The experiment in a line: Inhibitory effect on the biosyntheses of RNA in murine L1210 cells. Particulars: Mus musculus. It counts as functional, cell-based.
For a further experiment, the system named is CCRF-CEM. Kind of experiment: Cytotoxicity against CEM T-lymphocytes. It counts as functional, cell-based. Conditions: Homo sapiens.
The test system of experiment [5] is L1210. The experiment in a line: Cytotoxicity against murine L1210 cells. It counts as functional, cell-based. Particulars: Mus musculus.
Experiment [6] in a line: Average potency of all four cell lines (P388 cell line, L1210 cell line, Molt 4/C8 cell line, CEM T-lymphocytes). Details: unit not given here. It counts as functional.
Another experiment relates to P388. Kind of experiment: Cytotoxicity against murine P388 cells. Conditions: Mus musculus. It counts as functional, cell-based.
Experiment [7] concerns Jurkat. The experiment in a line: Inhibitory effect on the biosyntheses of RNA using human Jurkat T cells. The format is functional.
Experiment [8] has as its system Jurkat. The experiment in a line: (§1) Cytotoxicity against human Jurkat T cells. The format is functional, cell-based.
In experiment [9] the test system is Jurkat. Described as §1. It counts as functional.
The subject of experiment [10] is Jurkat. The experiment in a line: Inhibitory effect on the biosyntheses of protein using human Jurkat T cells. It counts as functional.
Experiment [11] is described as follows: The apoptotic index [(number of human jurkat cells with apoptotic nuclei/number of cells counted) 100]. The format is functional.

“And” between values parts separate entries of the source, which are not always exact repeats. Equal values may be shown once.

One may read the IC50 as the concentration needed to halve the response being measured. `O=C1/C(=C/c2ccc(N3CC3)cc2)CNC/C1=C\c1ccc(N2CC2)cc1`: the half-inhibitory concentration (IC50) with L1210 [1] is over 500 µM; in the experiment with L1210 [2] it was 320 µM; in [3], 226 µM; in the experiment on L1210 [4], 336 µM; with CCRF-CEM, 162 µM; in the experiment on L1210 [5] it was 240 µM. The same compound gave an IC50 in the experiment on P388 of 0.64 µM. In experiment [6], this compound showed an AP of 157.
As for `COc1ccc(/C=C2\CNC/C(=C\c3ccc(OC)cc3)C2=O)cc1`, the AP in experiment [6] is 174. In the experiment on P388, this compound gave a half-maximal inhibitory concentration (IC50) of 1.54 µM.
For the compound `C=CC(=O)N1C/C(=C\c2ccc(N3CC3)cc2)C(=O)/C(=C/c2ccc(N3CC3)cc2)C1`, the half-maximal inhibitory concentration (IC50) was 369 µM in experiment [3], over 500 µM in the experiment on CCRF-CEM, over 500 µM with L1210 [5] and 43.3 µM in the experiment on P388. Besides, the AP in experiment [6] is over 353.
As a reminder, the Inhibition is the relative decrease from the control value, in per cent. In general, IC80 refers to the concentration at which the effect reaches the 80% level. For the compound `C=CC(=O)N1C/C(=C\c2ccc(Cl)c(Cl)c2)C(=O)/C(=C/c2ccc(Cl)c(Cl)c2)C1`, the Inhibition in the experiment with Jurkat [7] was 67.6%; in the experiment with Jurkat [10] it was 58.1%. Also, the IC50 was 0.58 µM with Jurkat [8]; 1.04 µM in experiment [3]; 1.08 µM in the experiment on CCRF-CEM; 1.52 µM with L1210 [5]; 0.05 µM in the experiment with P388. It took 0.94 µM to reach the 80% level in the experiment on Jurkat [9] (IC80). For the same compound, the AP in experiment [6] is 0.92. Further, in experiment [11], the Apoptotic index is 63.5.
Consider `C=CC(=O)N1C/C(=C\c2ccc(Cl)cc2)C(=O)/C(=C/c2ccc(Cl)cc2)C1`, for which the IC50 in experiment [3] worked out at 0.44 µM; with CCRF-CEM it was 0.49 µM; with L1210 [5], 1.96 µM; in the experiment with P388, 0.15 µM. Also, in [6], the AP stood at 0.76.
`O=C1/C(=C/c2ccccc2)CNC/C1=C\c1ccccc1` had an AP in experiment [6] of 3.03. Also, half-maximal inhibition in the experiment with P388 (IC50) was put at 0.77 µM.
Turning to `O=C1/C(=C/c2ccc(Cl)c(Cl)c2)CNC/C1=C\c1ccc(Cl)c(Cl)c1`, the Inhibition in the experiment with Jurkat [7] is 26.4% and 31.1%. Further, the concentration for half-maximal inhibition (IC50) in the experiment with Jurkat [8] was found to be 3.09 µM; in experiment [3], 40.2 µM; in the experiment with CCRF-CEM, 20.8 µM; in the experiment on L1210 [5] it was 129 µM; with P388, 1.01 µM. The compound further gave an 80% effect concentration (IC80) in the experiment on Jurkat [9] of 4.83 µM. The compound further showed an AP in [6] of 47.8. In addition, the Apoptotic index in experiment [11] turned out to be 48.3.
As to `C=CC(=O)N1C/C(=C\c2ccc(OC)cc2)C(=O)/C(=C/c2ccc(OC)cc2)C1`, the IC50 in experiment [3] came out at 2.27 µM; in the experiment on CCRF-CEM, 2.67 µM; in the experiment with L1210 [5] it was 11.8 µM; with P388, 0.68 µM. Also, the AP in experiment [6] worked out at 4.36.
In the same order, the values of `C=CC(=O)N1C/C(=C\c2ccccc2)C(=O)/C(=C/c2ccccc2)C1` are 1.42 µM, 1.48 µM, 8.69 µM, 0.5 µM and 3.3.
For `C=CC(=O)N1C/C(=C\c2ccc([N+](=O)[O-])cc2)C(=O)/C(=C/c2ccc([N+](=O)[O-])cc2)C1`, the IC50 was determined as 2.77 µM in the experiment on L1210 [1]; 3.21 µM with L1210 [2]; 0.15 µM in experiment [3]; 5.73 µM in the experiment with L1210 [4]; 0.26 µM in the experiment on CCRF-CEM; 0.42 µM in the experiment on L1210 [5]. Also, the IC50 in the experiment on P388 came to 0.05 µM. The same compound returned an AP in experiment [6] of 0.22.
The compound `O=C1/C(=C/c2ccc(Cl)cc2)CNC/C1=C\c1ccc(Cl)cc1` gave an AP in experiment [6] of 16.1. Also, inhibition in the experiment on P388 was half-maximal at 0.74 µM (IC50).
Take `O=C1/C(=C/c2ccc([N+](=O)[O-])cc2)CNC/C1=C\c1ccc([N+](=O)[O-])cc1`: the IC50 in the experiment on L1210 [1] was 228 µM; in the experiment with L1210 [2] it was 214 µM; in [3], 8.28 µM; in the experiment on L1210 [4], 276 µM; in the experiment with CCRF-CEM, 4.47 µM; in the experiment with L1210 [5] it was 32.9 µM. In the experiment on P388, this compound yielded an IC50 of 0.2 µM. Moreover, the AP in experiment [6] is on record as 11.5.
As for `C=CC(=O)N1C/C(=C\c2ccc(F)cc2)C(=O)/C(=C/c2ccc(F)cc2)C1`, the IC50 was determined as 0.41 µM in experiment [3], 0.8 µM in the experiment with CCRF-CEM, 3.89 µM in the experiment with L1210 [5] and 0.27 µM in the experiment on P388. In experiment [6], this compound displayed an AP of 1.34.
On to `O=C1/C(=C/c2ccc(F)cc2)CNC/C1=C\c1ccc(F)cc1`, for which the AP in experiment [6] was 11. Half-maximal inhibition with P388 (IC50) required 0.6 µM.
Regarding `N[C@@H](Cc1ccc(N(CCCl)CCCl)cc1)C(=O)O`, the IC50 in the experiment with L1210 [1] is over 100 µM; in the experiment with L1210 [2], 94.6 µM; with L1210 [4] it was over 100 µM. Further, the Inhibition with Jurkat [7] was 85.1%; in the experiment with Jurkat [10], 17.3%. In addition, the AP in experiment [6] is 2.02.

Values taken from ChEMBL document CHEMBL1134837, “A conformational and structure-activity relationship study of cytotoxic 3,5-bis(arylidene)-4-piperidones and related N-acryloyl analogues” (J Med Chem, 2001).
